According to PMC6540907, “The nuclear export inhibitor aminoratjadone is a potent effector in extracellular-targeted drug conjugates” (Chemical Science, 2019):
Like-named read-outs stand apart in the source and are kept apart here. Starred links: 1 amine or outer side, 2 acyl side, 3 side chain; linkers in the order of their positions; H or OH if unused. Non-standard residues stand in square brackets, D forms with d. Residues, ends and D or L forms follow the SMILES beside them. Groups on a side chain read outwards from the residue. *: point of attachment. X2 = C/C=C/[C@@H]1O[C@H]([C@@H](/C=C/C=C(\C)C[C@@H](C)/C=C(C)\C=C\[C@H]2CC=CC(=O)O2)N*)C[C@@H](O)[C@@H]1C; X1 = O=C([C@@H](CCCn1nnc2c1CCC1C(CC2)C1COC(=O)[*:3])N[*:1])[*:2]; PABC = O=C(OCc1ccc(N[*:1])cc1)[*:2]; Cit = NC(=O)NCCC[C@H](N)C(=O)O; pGlu = O=C1CC[C@@H](C(=O)O)N1; azaGly = NNC(=O)O

How the values were obtained:
Type in all cases: cell-based, human
[1] = tested on: A-549; assay: cells
Procedure: (§1) Biological evaluation of the compounds […]
(§2) serial dilutions of the test compound were given to 120 µL of suspended cells (50.000/mL) in wells of 96-well plates. After 5 days of incubation growth inhibition (IC50) was determined using an MTT assay.9
(§3) Table S1:Medium conditions for different cell types.
(§4) Cell type Medium Additives
(§5) L-929 (DSMZ ACC 2) DME medium (high glucose) (Gibco) 10% fetal calf serum (Gibco) SKOV-3 DSMZ ATCC HTB Mc Coys-Medium (Gibco) 10% fetal calf serum (Gibco) […]
(§6) A549 (DSMZ ACC 107) DME medium (high glucose) (Gibco) 10% fetal calf serum (Gibco)

[2] = tested on: KB-3.1 cancer cells; assay: Cell proliferation assay under folate free conditions (MTT); conditions: KB-3.1, folate receptor-positive, read-out: Antiproliferative activity IC50 of folate-ratjadone conjugates
Procedure: Cell proliferation assay under folate free conditions
KB 3.1 (DSMZ ACC 158) cells were cultivated at 37 °C and 10 % CO2 in RMPI-medium without folic acid (Gibco) with 10% fetal calf serum (Gibco). 120 µL of suspended cells (100.000/mL) were seeded in wells of 96-well plates and after 24 h at 37 °C and 10 % CO2 the medium was removed, the cells were washed with PBS and RPMI-medium without folic acid (Gibco) + 10% dialyzed fetal calf serum (Sigma) were added to the cells, before after additional 24 h at 37°C and 10 % CO2 60 µL of serial dilutions of the test compound were given to cells. After 1, 2 and 5 days of incubation growth inhibition (IC50) was determined using an […]

[3] = tested on: SK-OV-3; assay: cells
Procedure: as §1, §2, §3, §4, §5, §6

[4] = tested on: MCF-7; assay: cells
Procedure: as §1, §2, §3, §4, §5, §6

[5] = tested on: KB-3.1; assay: cells
Procedure: as §1, §2, §3, §4, §5, §6

[6] = A-549 human lung carcinoma, read-out: Antiproliferative activity IC50
[7] = Homo sapiens, A549, read-out: Antiproliferative activity IC50, A-549 human lung carcinoma
[8] = Homo sapiens, SK-OV-3, read-out: Antiproliferative activity IC50
[9] = Homo sapiens, MCF7, read-out: Antiproliferative activity IC50, MCF-7 human breast carcinoma
[10] = Homo sapiens, KB 3-1, read-out: Antiproliferative activity IC50, KB-3.1 human cervix carcinoma

## C/C=C/[C@@H]1O[C@H]([C@@H](/C=C/C=C(\C)C[C@@H](C)/C=C(C)\C=C\[C@H]2CC=CC(=O)O2)NC(=O)OCc2ccc(NC(=O)[C@H](CCCNC(N)=O)NC(=O)[C@@H](NC(=O)OCC3C4CCc5nnn(CCC[C@@H](NC(=O)[C@H](Cc6ccc(O)cc6)NC(=O)[C@H](CO)NC(=O)[C@H](Cc6c[nH]c7ccccc67)NC(=O)[C@H](Cc6c[nH]cn6)NC(=O)[C@@H]6CCC(=O)N6)C(=O)N[C@@H](CC(C)C)C(=O)N[C@@H](CCCNC(=N)N)C(=O)N6CCC[C@H]6C(=O)NNC(N)=O)c5CCC43)C(C)C)cc2)C[C@@H](O)[C@@H]1C (stereo partly drawn) ([pGlu]HWSY[X1]([Val-Cit-PABC-X2])LRP[azaGly]-NH2)
[1]; [6]
  IC50: 0.0128 µM

## C/C=C/[C@@H]1O[C@H]([C@@H](/C=C/C=C(\C)C[C@@H](C)/C=C(C)\C=C\[C@H]2CC=CC(=O)O2)NC(=O)OCc2ccc(NC(=O)[C@H](CCCNC(N)=O)NC(=O)[C@@H](NC(=O)OCCc3cn(CCC[C@H](NC(=O)[C@H](Cc4ccc(O)cc4)NC(=O)[C@H](CO)NC(=O)[C@H](Cc4c[nH]c5ccccc45)NC(=O)[C@H](Cc4c[nH]cn4)NC(=O)[C@@H]4CCC(=O)N4)C(=O)N[C@@H](CC(C)C)C(=O)N[C@@H](CCCNC(=N)N)C(=O)N4CCC[C@H]4C(=O)NCC(N)=O)nn3)C(C)C)cc2)C[C@@H](O)[C@@H]1C
[1]; [6]
  IC50: 1.2 µM

## C/C=C/[C@@H]1O[C@H]([C@@H](/C=C/C=C(\C)C[C@@H](C)/C=C(C)\C=C\[C@H]2CC=CC(=O)O2)NC(=O)OCc2ccc(NC(=O)[C@H](CCCNC(N)=O)NC(=O)[C@@H](NC(=O)OCC3C4CCc5nnn(CCC[C@H](NC(=O)[C@@H](CC(=O)O)NC(=O)[C@@H](CC(=O)O)NC(=O)[C@@H](CC(=O)O)NC(=O)CC[C@H](NC(=O)c6ccc(NCc7cnc8nc(N)nc(O)c8n7)cc6)C(=O)O)C(=O)N[C@H](CC(=O)O)C(=O)N[C@H](CC(=O)O)C(=O)N[C@H](CCCCN)C(=O)O)c5CCC43)C(C)C)cc2)C[C@@H](O)[C@@H]1C (stereo partly drawn) [FA-10-Val-Cit-pABA-16R-aminoratjadone]
[2]
  IC50: 0.0353 µM

## C/C=C/[C@@H]1O[C@H]([C@@H](/C=C/C=C(\C)C[C@@H](C)/C=C(C)\C=C\[C@H]2CC=CC(=O)O2)NC(=O)OCc2ccc(NC(=O)[C@H](CCCNC(N)=O)NC(=O)[C@@H](NC(=O)OC[C@@H]3[C@@H]4CCc5nnn(CCC[C@H](NC(=O)CC[C@H](NC(=O)CC[C@H](NC(=O)c6ccc(NCc7cnc8nc(N)nc(O)c8n7)cc6)C(=O)O)C(=O)O)C(=O)O)c5CC[C@@H]43)C(C)C)cc2)C[C@@H](O)[C@@H]1C [FA-7-Val-Cit-pABA-16R-aminoratjadone]
[2]
  IC50: 0.0343 µM

## C/C=C/[C@@H]1O[C@H]([C@@H](/C=C/C=C(\C)C[C@@H](C)/C=C(C)\C=C\[C@H]2CC=CC(=O)O2)NC(=O)OCc2ccc(NC(=O)[C@H](CCCNC(N)=O)NC(=O)[C@@H](NC(=O)OCC3C4CCc5nnn(CCC[C@@H](NC(=O)[C@H](Cc6ccc(O)cc6)NC(=O)[C@H](CO)NC(=O)[C@H](Cc6c[nH]c7ccccc67)NC(=O)[C@H](Cc6c[nH]cn6)NC(=O)[C@@H]6CCC(=O)N6)C(=O)N[C@@H](CC(C)C)C(=O)N[C@@H](CCCNC(=N)N)C(=O)N6CCC[C@H]6C(=O)NCC(N)=O)c5CCC43)C(C)C)cc2)C[C@@H](O)[C@@H]1C (stereo partly shown)
[1]; [6]
  IC50: 0.023 µM

## C/C=C/[C@@H]1O[C@H]([C@@H](/C=C/C=C(\C)C[C@@H](C)/C=C(C)\C=C\[C@H]2CC=CC(=O)O2)NC(=O)OCCc2cn(-c3ccc(C(=O)NCCCC[C@H](NC(=O)CC[C@H](NC(=O)CC[C@H](NC(=O)c4ccc(NCc5cnc6nc(N)nc(O)c6n5)cc4)C(=O)O)C(=O)O)C(=O)O)cc3)nn2)C[C@@H](O)[C@@H]1C [FA-6-L-16R-aminoratjadone]
[2]; listed as FA-6-L-16R-Aminoratjadone
  IC50: 0.15 µM
[2]
  IC50: 0.15 µM

## C/C=C/[C@@H]1O[C@H]([C@@H](/C=C/C=C(\C)C[C@@H](C)/C=C(C)\C=C\[C@H]2CC=CC(=O)O2)NC(=O)OCCc2cn(CCC[C@H](NC(=O)CC[C@H](NC(=O)CC[C@H](NC(=O)c3ccc(NCc4cnc5nc(N)[nH]c(=O)c5n4)cc3)C(=O)O)C(=O)O)C(=O)O)nn2)C[C@@H](O)[C@@H]1C [FA-7-L-16R-aminoratjadone]
[2]; listed as FA-7-L-16R-Aminoratjadone
  IC50: 0.19 µM
[2]
  IC50: 0.19 µM

## C#CCCC(=O)NCCSSCCC(=O)N[C@H](/C=C/C=C(\C)C[C@@H](C)/C=C(C)\C=C\[C@H]1CC=CC(=O)O1)[C@@H]1C[C@@H](O)[C@H](C)[C@H](/C=C/C)O1 [Compound 29, HCC(CH2)2(CO)-NH-(CH2)2SS(CH2)2(CO)-16R-Aminoratjadone]
[1]; [7]
  IC50: 0.00086 µM
[3]; [8]
  IC50: 0.00109 µM
[4]; [9]
  IC50: 0.00017 µM
[5]; [10]
  IC50: 0.00186 µM

## C#CCCOC(=O)N[C@@H](C(=O)NC(CCCNC(N)=O)C(=O)Nc1ccc(COC(=O)N[C@H](/C=C/C=C(\C)C[C@@H](C)/C=C(C)\C=C\[C@H]2CC=CC(=O)O2)[C@@H]2C[C@@H](O)[C@H](C)[C@H](/C=C/C)O2)cc1)C(C)C (stereo partly shown) [Compound 26]
[1]; [6]
  IC50: 0.0251 µM
[1]; Homo sapiens, A549, A-549 human lung carcinoma, read-out: Antiproliferative activity IC50
  IC50: 0.0251 µM
[3]; Homo sapiens, SK-OV-3, SK-OV-3 human ovarian carcinoma, read-out: Antiproliferative activity IC50
  IC50: 0.0136 µM
[3]; SK-OV-3 human ovarian carcinoma, read-out: Antiproliferative activity IC50
  IC50: 0.0136 µM
[4]; Homo sapiens, MCF7, MCF-7 human breast carcinoma, read-out: Antiproliferative activity IC50
  IC50: 0.0125 µM
[4]; MCF-7 human breast carcinoma, read-out: Antiproliferative activity IC50
  IC50: 0.0125 µM
[5]; KB 3-1, KB-3.1 human cervix carcinoma, read-out: Antiproliferative activity IC50
  IC50: 0.0092 µM

## C/C=C/[C@@H]1O[C@H]([C@@H](/C=C/C=C(\C)C[C@@H](C)/C=C(C)\C=C\[C@H]2CC=CC(=O)O2)NC(=O)OCc2ccc(NC(=O)[C@H](CCCNC(N)=O)NC(=O)[C@@H](NC(=O)OCC3C4CCc5nnn(CCC[C@H](NC(=O)[C@@H](CC(=O)O)NC(=O)[C@@H](CC(=O)O)NC(=O)[C@H](CCCn6nnc7c6CCC6C(CC7)C6COC(=O)N[C@H](C(=O)N[C@@H](CCCNC(N)=O)C(=O)Nc6ccc(COC(=O)N[C@H](/C=C/C=C(\C)C[C@@H](C)/C=C(C)\C=C\[C@H]7CC=CC(=O)O7)[C@@H]7C[C@@H](O)[C@H](C)[C@H](/C=C/C)O7)cc6)C(C)C)NC(=O)[C@@H](CC(=O)O)NC(=O)[C@@H](CC(=O)O)NC(=O)[C@H](CCCn6nnc7c6CCC6C(CC7)C6COC(=O)N[C@H](C(=O)N[C@@H](CCCNC(N)=O)C(=O)Nc6ccc(COC(=O)N[C@H](/C=C/C=C(\C)C[C@@H](C)/C=C(C)\C=C\[C@H]7CC=CC(=O)O7)[C@@H]7C[C@@H](O)[C@H](C)[C@H](/C=C/C)O7)cc6)C(C)C)NC(=O)[C@@H](CC(=O)O)NC(=O)[C@@H](CC(=O)O)NC(=O)CC[C@H](NC(=O)c6ccc(NCc7cnc8nc(N)nc(O)c8n7)cc6)C(=O)O)C(=O)O)c5CCC43)C(C)C)cc2)C[C@@H](O)[C@@H]1C (stereo partly drawn) [FA-11-(Val-Cit-pABA-16R-aminoratjadone)3]
[2]
  IC50: 0.045 µM

## CC(C)C[C@H](NC(=O)[C@@H](CCCN=[N+]=[N-])NC(=O)[C@H](Cc1ccc(O)cc1)NC(=O)[C@H](CO)NC(=O)[C@H](Cc1c[nH]c2ccccc12)NC(=O)[C@H](Cc1c[nH]cn1)NC(=O)[C@@H]1CCC(=O)N1)C(=O)N[C@@H](CCCNC(=N)N)C(=O)N1CCC[C@H]1C(=O)NCC(N)=O [D-Orn-N3-LHRH]
[1]
  IC50: 0.318 µM
[3]
  IC50: 0.19 µM
[4]
  IC50: 0.0474 µM
[5]
  IC50: 1.11 µM

## C/C=C/[C@@H]1O[C@H]([C@@H](/C=C/C=C(\C)C[C@@H](C)/C=C(C)\C=C\[C@H]2CC=CC(=O)O2)NC(=O)OCCc2cn(-c3ccc(C(=O)NCCCC[C@H](NC(=O)CC[C@H](NC(=O)c4ccc(NCc5cnc6nc(N)[nH]c(=O)c6n5)cc4)C(=O)O)C(=O)N[C@@H](CCCCN)C(=O)O)cc3)nn2)C[C@@H](O)[C@@H]1C [FA-8-L-16R-aminoratjadone]
[2]; listed as FA-8-L-16R-Aminoratjadone
  IC50: 0.129 µM
[2]
  IC50: 0.129 µM

## C/C=C/[C@@H]1O[C@H]([C@@H](/C=C/C=C(\C)C[C@@H](C)/C=C(C)\C=C\[C@H]2CC=CC(=O)O2)NC(=O)CCSSC[C@H](NC(=O)CC[C@H](NC(=O)c2ccc(NCc3cnc4nc(N)nc(O)c4n3)cc2)C(=O)O)C(=O)O)C[C@@H](O)[C@@H]1C [FA-SS-16R-aminoratjadone]
[2]; listed as FA-SS-16R-Aminoratjadone
  IC50: 0.295 µM
[2]
  IC50: 0.295 µM

## C/C=C/[C@@H]1O[C@H]([C@@H](/C=C/C=C(\C)C[C@@H](C)/C=C(C)\C=C\[C@H]2CC=CC(=O)O2)NC(=O)OCCc2cn(CCC[C@H](NC(=O)[C@H](Cc3ccc(O)cc3)NC(=O)[C@H](CO)NC(=O)[C@H](Cc3c[nH]c4ccccc34)NC(=O)[C@H](Cc3c[nH]cn3)NC(=O)[C@@H]3CCC(=O)N3)C(=O)N[C@@H](CC(C)C)C(=O)N[C@@H](CCCNC(=N)N)C(=O)N3CCC[C@H]3C(=O)NCC(N)=O)nn2)C[C@@H](O)[C@@H]1C [L-Orn-LHRH-16R-aminoratjadone]
[1]; [6]
  IC50: 1.6 µM

## C#CCCOC(=O)NC1C[C@@H]([C@H](O)/C=C/C=C(\C)C[C@@H](C)/C=C(C)\C=C\[C@H]2CC=CC(=O)O2)O[C@@H](/C=C/C)[C@H]1C (stereo partly shown) [Compound 34]
[1]; [7]
  IC50: 0.00522 µM
[3]; [8]
  IC50: 0.00422 µM
[4]; [9]
  IC50: 0.0031 µM
[5]; [10]
  IC50: 0.00723 µM
